Test results published in patent US20180273531A1, “PYRIMIDINE COMPOUND AND MEDICAL USE THEREOF” (Japan Tobacco Inc., priority 2004, published 2018).

Legend:
Type in all cases: cell-based
[1] = test system: p27 protein; assay: p27 protein induction test (Western blotting); settings: test substance (0.1 1M), 24 hrs, ACHN cells or HT-29 cells, compared to DMSO, n=2
In short: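 p27 level taken as anti-p27 band density by densitometry, mean of n=2, with DMSO as control. Samples loaded at amount equivalent to 10 μg BSA. Cells were ACHN or HT-29, exposed 24 h to […] test substance after 24 h pre-culture.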

[2] = test system: Renal cancer cell line ACHN cell; assay: Growth inhibitory effect against cancer cell lines (3H-thymidine uptake), ACHN; settings: Homo sapiens, ACHN
In short: (§1)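 IC50 = concentration reducing ^3H-thymidine incorporation to 50% of DMSO control, measured in triplicate. Compound added 24 hrs after plating (1.0×10^4 cells/well); label (0.25 μCi/well) given after 18 hrs of treatment, followed by 6 hrs further culture and scintillation counting of harvested cells.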

[3] = test system: colorectal cancer cell line HT-29 cells; assay: Growth inhibitory effect against cancer cell lines (3H-thymidine uptake), HT-29; settings: Homo sapiens, HT-29, inhibition of 3H-thymidine uptake; test substance 18 hrs, then 3H-thymidine 6 hrs; triplicate
In short: as §1

[4] = test system: p15 protein; assay: Evaluation of p15 induction activity (Western blotting); settings: test substance 0.1 μM, 24 hrs, ACHN cells or HT-29 cells, compared to DMSO, n=2
In short: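 p15 protein quantified by densitometry of anti-p15 Western blots (10 μg protein per lane, mean of n=2). Samples came from HT-29 or ACHN cells given 0.1 μM compound for 24 h after 24 h plating, with DMSO as control.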

| Compound | fold induction at 0.1 µM [1] | IC50 [2] [nM] | IC50 [3] [nM] | fold induction at 0.1 µM [4] |
| --- | --- | --- | --- | --- |
| CCc1ccc(Nc2c3c(=O)n(C)c(=O)n(-c4cccc(NC(C)=O)c4)c3c(C)c(=O)n2C)c(F)c1 [Example 4-50] | ≥ 1.5 | 100 to 1000 | 10 to 100 | ≥ 1.5 |
| CCc1ccc(Nc2c3c(=O)n(C)c(=O)n(-c4cccc(NS(C)(=O)=O)c4)c3c(C)c(=O)n2C)c(F)c1 [Example 4-51] | ≥ 1.5 | 10 to 100 | < 10 | ≥ 1.5 |
| CCCc1ccc(Nc2c3c(=O)n(C4CC4)c(=O)n(-c4cccc(NC(C)=O)c4)c3c(C)c(=O)n2C)c(F)c1 [Example 4-53] | ≥ 1.5 | 100 to 1000 | 10 to 100 | ≥ 1.5 |
| Cc1c(=O)n(C)c(Nc2ccc(I)cc2F)c2c(=O)n(C3CC3)c(=O)n(-c3cccc(S(C)(=O)=O)c3)c12 [Example 4-55] | ≥ 1.5 | 10 to 100 | < 10 | ≥ 1.5 |
| CC(=O)Nc1cccc(-n2c(=O)n(C3CC3)c(=O)c3c(Nc4ccc(C)cc4F)n(C)c(=O)c(C)c32)c1 [Example 4-56] | ≥ 1.5 | 100 to 1000 | 10 to 100 | ≥ 1.5 |
| CCS(=O)(=O)c1cccc(-n2c(=O)n(C3CC3)c(=O)c3c(Nc4ccc(I)cc4F)n(C)c(=O)c(C)c32)c1 [Example 4-58] | ≥ 1.5 | 10 to 100 | < 10 | ≥ 1.5 |
| Cc1c(=O)n(C)c(Nc2ccc(I)cc2F)c2c(=O)n(C3CC3)c(=O)n(-c3cccc(NS(=O)(=O)N4CCCCC4)c3)c12 [Example 4-59] | ≥ 1.5 | 10 to 100 | < 10 | ≥ 1.5 |
| CCC(=O)Nc1cccc(-n2c(=O)n(C3CC3)c(=O)c3c(Nc4ccc(I)cc4F)n(C)c(=O)c(C)c32)c1 [Example 4-60] | ≥ 1.5 | 10 to 100 | < 10 | ≥ 1.5 |
| CC(=O)Nc1cccc(-n2c(=O)n(C3CC3)c(=O)c3c(Nc4ccc(N(C)C)cc4F)n(C)c(=O)c(C)c32)c1 [Example 4-61] | ≥ 1.5 | 10 to 100 | 10 to 100 | ≥ 1.5 |
| Cc1c(=O)n(C)c(Nc2ccc(I)cc2F)c2c(=O)n(C3CC3)c(=O)n(-c3cc(Cl)cc(NS(C)(=O)=O)c3)c12 [Example 4-64] | ≥ 1.5 | 100 to 1000 | 10 to 100 | ≥ 1.5 |
| CC(=O)Nc1ccc(-n2c(=O)n(C3CC3)c(=O)c3c(Nc4ccc(I)cc4F)n(C)c(=O)c(C)c32)cc1 [Example 4-66] | ≥ 1.5 | 100 to 1000 | 10 to 100 | ≥ 1.5 |
| CC(=O)Nc1cccc(-n2c(=O)n(C3CC3)c(=O)c3c(Nc4ccc(C5CC5)cc4F)n(C)c(=O)c(C)c32)c1 [Example 4-67] | ≥ 1.5 | 10 to 100 | < 10 | ≥ 1.5 |
| C#Cc1ccc(Nc2c3c(=O)n(C4CC4)c(=O)n(-c4ccc(NC(C)=O)cc4)c3c(C)c(=O)n2C)c(F)c1 [Example 4-71] | ≥ 1.5 | 100 to 1000 | 10 to 100 | ≥ 1.5 |
| Cc1c(=O)n(C)c(Nc2ccc(I)cc2F)c2c(=O)n(C3CC3)c(=O)n(-c3ccccc3)c12 [Example 4-72] | ≥ 1.5 | 10 to 100 | < 10 | ≥ 1.5 |
| Cc1c(=O)n(C)c(Nc2ccc(I)cc2F)c2c(=O)n(C3CC3)c(=O)n(-c3cccc(NC(=O)c4c[nH]cn4)c3)c12 [Example 4-73] | ≥ 1.5 | 10 to 100 | < 10 | ≥ 1.5 |
| CONC(=O)Nc1cccc(-n2c(=O)n(C3CC3)c(=O)c3c(Nc4ccc(I)cc4F)n(C)c(=O)c(C)c32)c1 [Example 4-74] | ≥ 1.5 | 10 to 100 | < 10 | ≥ 1.5 |
| C#Cc1ccc(Nc2c3c(=O)n(C4CC4)c(=O)n(-c4ccc(NS(C)(=O)=O)cc4)c3c(C)c(=O)n2C)c(F)c1 [Example 4-76] | ≥ 1.5 | 10 to 100 | < 10 | ≥ 1.5 |
| CCS(=O)(=O)Nc1ccc(-n2c(=O)n(C3CC3)c(=O)c3c(Nc4ccc(I)cc4F)n(C)c(=O)c(C)c32)cc1 [Example 4-77] | ≥ 1.5 | 10 to 100 | < 10 | ≥ 1.5 |
| CCc1ccc(Nc2c3c(=O)n(C4CC4)c(=O)n(-c4ccc(NS(C)(=O)=O)cc4)c3c(C)c(=O)n2C)c(F)c1 [Example 4-78] | ≥ 1.5 | 100 to 1000 | 10 to 100 | ≥ 1.5 |

| Compound | fold induction at 0.1 µM [1] | IC50 [2] [nM] | IC50 [3] [nM] | fold induction at 0.1 µM [4] |
| --- | --- | --- | --- | --- |
| CON(C)C(=O)Nc1cccc(-n2c(=O)n(C3CC3)c(=O)c3c(Nc4ccc(I)cc4F)n(C)c(=O)c(C)c32)c1 [Example 4-80] | ≥ 1.5 | 10 to 100 | < 10 | ≥ 1.5 |
| Cc1c(=O)n(C)c(Nc2ccc(I)cc2F)c2c(=O)n(C3CC3)c(=O)n(-c3cccc(NC(N)=O)c3)c12 [Example 4-81] | ≥ 1.5 | 10 to 100 | < 10 | ≥ 1.5 |
| Cc1c(=O)n(C)c(Nc2ccc(I)cc2F)c2c(=O)n(C3CC3)c(=O)n(-c3ccc4c(c3)NC(=O)C4)c12 [Example 4-88] | ≥ 1.5 | < 10 | < 10 | ≥ 1.5 |
| Cc1c(=O)n(C)c(Nc2ccc(I)cc2F)c2c(=O)n(C3CC3)c(=O)n(-c3cccc(NC(=O)c4cn[nH]c4)c3)c12 [Example 4-89] | ≥ 1.5 | 100 to 1000 | 10 to 100 | ≥ 1.5 |
| Cc1c(=O)n(C)c(Nc2ccc(I)cc2F)c2c(=O)n(C3CC3)c(=O)n(-c3ccc(C(=O)O)cc3)c12 [Example 4-90] | ≥ 1.5 | 100 to 1000 | 10 to 100 | ≥ 1.5 |
| Cc1c(=O)n(C)c(Nc2ccc(I)cc2F)c2c(=O)n(C3CC3)c(=O)n(-c3ccc(C(N)=O)cc3)c12 [Example 4-91] | ≥ 1.5 | 10 to 100 | < 10 | ≥ 1.5 |
| CNC(=O)c1ccc(-n2c(=O)n(C3CC3)c(=O)c3c(Nc4ccc(I)cc4F)n(C)c(=O)c(C)c32)cc1 [Example 4-92] | ≥ 1.5 | 10 to 100 | < 10 | ≥ 1.5 |
| Cc1c(=O)n(C)c(Nc2ccc(I)cc2F)c2c(=O)n(C3CC3)c(=O)n(-c3ccc(C(=O)N(C)C)cc3)c12 [Example 4-93] | ≥ 1.5 | 10 to 100 | < 10 | ≥ 1.5 |
| C=C(C)c1ccc(Nc2c3c(=O)n(C4CC4)c(=O)n(-c4cccc(NC(C)=O)c4)c3c(C)c(=O)n2C)c(F)c1 [Example 4-97] | ≥ 1.5 | 10 to 100 | < 10 | ≥ 1.5 |
| CC(=O)Nc1cccc(-n2c(=O)n(C3CC3)c(=O)c3c(Nc4ccc(C(C)C)cc4F)n(C)c(=O)c(C)c32)c1 [Example 4-98] | ≥ 1.5 | 10 to 100 | < 10 | ≥ 1.5 |
| Cc1c(=O)n(C)c(Nc2ccc(I)cc2F)c2c(=O)n(C3CC3)c(=O)n(-c3ccc(F)c(NS(C)(=O)=O)c3)c12 [Example 4-101] | ≥ 1.5 | 10 to 100 | < 10 | ≥ 1.5 |
| C#Cc1ccc(Nc2c3c(=O)n(C4CC4)c(=O)n(-c4ccc(F)c(NC(C)=O)c4)c3c(C)c(=O)n2C)c(F)c1 [Example 4-102] | ≥ 1.5 | 100 to 1000 | 10 to 100 | ≥ 1.5 |
| Cc1c(=O)n(C)c(Nc2ccc(I)cc2F)c2c(=O)n(C3CC3)c(=O)n(-c3ccc4nc(O)[nH]c4c3)c12 [Example 4-103] | ≥ 1.5 | 100 to 1000 | < 10 | ≥ 1.5 |
| CSc1ccc(Nc2c3c(=O)n(C4CC4)c(=O)n(-c4cccc(NC(C)=O)c4)c3c(C)c(=O)n2C)c(F)c1 [Example 4-105] | ≥ 1.5 | 10 to 100 | < 10 | ≥ 1.5 |
| CSc1ccc(Nc2c3c(=O)n(C4CC4)c(=O)n(-c4cccc(NS(C)(=O)=O)c4)c3c(C)c(=O)n2C)c(F)c1 [Example 4-106] | ≥ 1.5 | 10 to 100 | < 10 | ≥ 1.5 |
| Cc1c(=O)n(C)c(Nc2ccc(I)cc2F)c2c(=O)n(C3CC3)c(=O)n(-c3ccc4nc[nH]c4c3)c12 [Example 4-107] | ≥ 1.5 | 10 to 100 | < 10 | ≥ 1.5 |
| Cc1c(=O)n(C)c(Nc2ccc(I)cc2F)c2c(=O)n(C3CC3)c(=O)n(-c3cccc(N4C(=O)CNC4=O)c3)c12 [Example 4-108] | ≥ 1.5 | 10 to 100 | < 10 | ≥ 1.5 |
| Cc1c(=O)n(C)c(Nc2ccc(I)cc2F)c2c(=O)n(C3CC3)c(=O)n(-c3cccc(N4CC(=O)NC4=O)c3)c12 [Example 4-109] | ≥ 1.5 | 10 to 100 | < 10 | ≥ 1.5 |
